What was measured:
[1] = test system: edema caused by intradermal injection of human recombinant IL-1β in the mouse ear; assay: Ear edema by intradermal recombinant human IL-1β; assay type: in vivo, BALB/c mice; conditions: for effect of antagonist on anti-inflammatory effect of centrally administered α-MSH (1-13): antagonist administered intraperitoneally
Procedure: Female BALB/c mice (Simonsen Laboratories, Gilroy, Calif.), 7-8 weeks old, were housed at 23-25° C. in groups not exceeding five animals per cage [28 cm (L)×18 cm (W)×13 cm (H)]. Before the experiments they were acclimatized for not less than 1 week before experimentation to standard lighting and temperature conditions with food and water freely available.
Mice were anesthetized with 10% pentobarbital sodium solution (1 mg/mouse, 50 mg/ml, Nembutal sodium solution; Abbott Laboratories, North Chicago, Ill.). Baseline ear thickness measurements were taken with a spring-loaded micrometer (Swiss Precision Instruments, Los Angeles, Calif.). Ear thickness was expressed in cubic centimeters and was measured at least twice at each time point. The average thickness of unstimulated ears was […]. Inflammation was induced by intradermal injection of 20 μl of recombinant human IL-1β (1500 U; Genzyme, Cambridge, Mass.) in one ear of each mouse using a 28 gauge needle (Hiltz et al., 1992). Measures of ear thickness were repeated 4 and 6 hr later, while the mice were under sodium pentobarbital anesthesia. Edema was assessed by subtracting baseline measures from 4 and 6 hr readings for each animal. α-MSH (11-13) (1663.9 gm/mol; Peninsula Laboratories, Belmont, Calif.) or α-MSH (11-13) (383.48 gm/mol; Peninsula Laboratories) dissolved in saline was injected intracerebroventricularly (20 μl) using procedures described previously (Lipton et al., 1991; Lipton and Catania, 1993).
Several agents were administered at the time of ear challenge to pharmacologically block certain receptors: atropine (Sigma Chemical Co.; 150 μg i.p.), a muscarinic receptor blocker that acts on autonomic end-organ receptors, was chosen because of links between inflammation and modulation of pain and the finding that muscarinic antagonists increase pain threshold (Hartvig et al., 1989); phentolamine (Sigma; 150 μg i.p.) an agent that competes for occupancy of α-adrenergic receptors; propranolol (Sigma; 150 μg, i.p.; 30 μg, i.c.v.), a nonspecific competitive antagonist for β-adrenergic receptors.
(§1) Because of the size of the experiments and the requirement for several shipments of animals over time, several experiments were performed, each with complete treatment and control groups drawn from the same shipment of mice. Omnibus analysis of variance techniques (Dynastat, Washington, D.C.) were used to test overall differences among group means. Tukey's protected t test was used to compare individual means. Probability values of <0.05 were considered significant.

[2] = test system: inflammation induced in the hind paw; assay: Kappa carrageenan-induced hind paw inflammation, spinal cord intact or transected; assay type: in vivo, BALB/c mice; conditions: 2.5 mg/mouse IP, mice with spinal transection, 4.5 h after carrageenan
Procedure: Because surgical dissection of trigeminal structures that innervate the ear of the mouse is very difficult, tests to learn whether descending neural pathways are essential to the anti-inflammatory activity of centrally administered α-MSH peptides were performed in mice with inflammation induced in a hind paw. In these experiments, each animal was anesthetized with pentobarbital sodium solution as above. Baseline footpad thickness of both hind paws was measured with a spring-loaded micrometer (Swiss Precision Instruments, Los Angeles, Calif.). Paw thickness was expressed in units of 10^−3 cm; average thickness of unstimulated paws was 171.5×10^−3 cm across shipments of animals. Kappa carrageenan (Sigma) dissolved in saline (0.05%, 20 μl) was injected (28 gauge allergy test syringe) into one footpad, and saline (20 μl) was injected into the other. For the analyses, the increase in thickness of the control saline-injected paw of each animal was subtracted from that of the carrageenan-injected paw, to eliminate the influence of mechanical injury and volume of the injected fluid. To be certain that mice with severed spinal cords can react to anti-inflammatory agents, prednisolone (2.5 mg/mouse (IP injection)) was administered to 10 mice with spinal transection and inflammation induced by carrageenan. Treatment with the locally acting steroid reduced swelling up to 29% (average, relative to saline controls) at 4.5 h. after carrageenan.
However, a standardized crushing of lumbar vertebrae with a hemostat was effective in severing the cord; no deaths were caused by this treatment. […] The experiments were limited to 4.5 h to reduce problems of bowel and bladder dysfunction. Immediately after the 4.5 h measurements all mice were killed with an overdose of sodium pentobarbital.
as §1

[3] = test system: C. albicans; assay: C. albicans colony forming units (candidacidal activity); assay type: cell-based; conditions: for relative potency in reducing C. albicans viability: 10^−4M melanocortin peptides; for reduction of C. albicans CFU at higher concentrations: up to 10^−4M
Procedure: C. albicans (1×10^6/ml in HBSS) was incubated in the presence or absence or α-MSH (1-13) or α-MSH (11-13) at concentrations in the range of 10^−15 M to 10^−6 M for 2 hours at 37° C. Cells were then washed in cold distilled water and diluted with HBSS to a concentration of 100 organisms/ml. One-ml aliquots were dispensed on blood agar plates and incubated for 48 hours at 37° C. Organism viability was estimated from the number of colonies formed. In subsequent experiments using familiar procedures we compared activity of α-MSH (4-10), α-MSH (6-13), α-MSH (11-13), ACTH (1-39), (18-39) and fluconazole, the latter an established antifungal agent. Melanocortin peptides and fluconazole were tested in concentrations of 10^−6 M to 10^−4 M. There were at least six replicates for each concentration of peptide.

[4] = test system: inflammation induced in the ear by picryl chloride; assay: Picryl chloride-induced ear swelling; assay type: in vivo, BALB/C mice; conditions: for overall effect on ear inflammation (ANOVA): 10-80 μg IP, 3 and 6 h
Procedure: Female BALB/C mice (Simmons Laboratories), 7 weeks old, were housed at 23-25° C. in groups of no more than 5 per cage [28 cm (L)×18 cm (W)×13 cm (H)]. They were allowed to acclimatize to standard lighting and temperature conditions for at least 1 week, with food and water available ad lib, before the experiment began. Five to ten animals were randomly assigned to each treatment group each test day, and all experiments were repeated at least twice to confirm reproducibility. To reduce error due to slight differences in responses to the irritant of animals from different shipments, tests of each agent were performed as separate experiments in which experimental and control animals were drawn from the same shipment.
In the experiments each animal was anesthetized with 1 mg of pentobarbital sodium solution (50 mg/kg, Nembutal, Abbott Laboratories, Abbott park, Ill.). Baseline ear thickness was measured for both ears with a spring-loaded micrometer (Swiss Precision Instruments, Los Angeles, Calif.). Ear thickness was expressed in units of 10^−3 cm; the average thickness of unstimulated ears was approximately 25-30×10^−3 cm. After baseline measurements were taken, one of six solutions was injected IP. Control animals received 0.2 ml of sterile saline, and experimental animals received Ac-α-MSH (11-13)-NH2, i.e., Ac-Lys-Pro-Val-NH2), Ac[D-Lys^11] α-MSH (11-13)-NH2, Ac[D-Pro^12] α-MSH (11-13)-NH2, Ac[D-Val^13] α-MSH (11-13)-NH2 or Ac-[D-Lys^11, D-Val^13] α-MSH (11-13)-NH2 in the same volume of saline. […] The doses of the tripeptides were 10 μg ([…]), 20 μg ([…]), 40 μg (1.04×10^−7 M), and 80 μg (2.08×10^−7 M). Immediately after saline or α-MSH injection, a micropipette was used to coat both sides of each ear with 10 μl (40 μl per mouse) of a 0.5% picryl chloride (Polysciences, Warrington, Pa.) solution in acetone.
Ear thickness was remeasured 3 and 6 h after picryl chloride application. Swelling was determined by subtracting baseline thickness from the measurements for each ear at 3 and 6 h. The differences for both ears were then averaged for the final analysis.
Repeated-measure ANOVA techniques were used to determine if there was an overall difference among group data for each peptide tested in separate experiments. In those cases in which the ANOVA yielded significant results, Dunnett's test was then used to compare the effects of peptide doses with control (saline) data for each of the two time periods, 3 and 6 h.

[5] = test system: C. albicans; assay: Horse serum-induced germ tube formation of C. albicans; assay type: cell-based; conditions: 10^−6M, 60 minutes at 37° C.
Procedure: C. albicans from stationary phase cultures were washed twice with distilled water and suspended in HBSS to a final concentration of 2×10^6/ml. Hyphal growth was induced by addition of 10% inactivated horse serum (GIBCO/BRL, Great Britain) to yeast incubated for 45 minutes at 37° C. with continuous shaking. Horse serum was removed by washing cells twice with HBSS and incubation was continued for 60 minutes at 37° C. in the presence of α-MSH (1-13), α-MSH (6-13) or α-MSH (11-13) at a concentration of 10^−6M with continuous shaking. The percentage of filamentous cells was evaluated under a light microscope with the aid of hemocytometer. Experiments were run in triplicate and at least 200 cells were scored. Photomicrographs were taken with an MC100 camera attached to an Axioskop Zeiss microscope.

## CC(C)NCC(O)COc1ccc(CC(N)=O)cc1 (centres unmarked) [atenolol]
[1]
  effect of antagonist on anti-inflammatory effect of centrally administered α-MSH (1-13): little inhibition

## CN1[C@@H]2CC[C@H]1C[C@@H](OC(=O)C(CO)c1ccccc1)C2 (some centres unmarked) [atropine]
[1]
  effect of antagonist on anti-inflammatory effect of centrally administered α-MSH (1-13): did not alter

## COc1ccc(OC)c(C(O)C(C)NC(C)(C)C)c1 (centres unmarked) [butoxamine]
[1]
  effect of antagonist on anti-inflammatory effect of centrally administered α-MSH (1-13): significantly reduced

## Cc1ccc(N(CC2=NCCN2)c2cccc(O)c2)cc1 [phentolamine]
[1]
  effect of antagonist on anti-inflammatory effect of centrally administered α-MSH (1-13): did not alter

## C[C@]12C=CC(=O)C=C1CC[C@@H]1[C@@H]2[C@@H](O)C[C@@]2(C)[C@H]1CC[C@]2(O)C(=O)CO [prednisolone, reference compound]
[2]
  reduction of swelling relative to saline controls (average): up to 29%

## CC(C)NCC(O)COc1cccc2ccccc12 (centres unmarked) [propranolol]
[1]
  effect of antagonist on anti-inflammatory effect of centrally administered α-MSH (1-13): inhibited
[1]; antagonist injected centrally
  effect of antagonist on anti-inflammatory influence of α-MSH (1-13): little effect

## ACTH (1-39): adrenocortitrophic hormone peptide (1-39) (SYSMEHFRWGKPVGKKRRPVKVYPNGAEDESAEAFPLEF; Corticotropin; UniProt P01189 138-176, looked up) [reference compound]
[3]
  relative potency in reducing C. albicans viability: did not reduce C. albicans viability
  reduction of C. albicans CFU at higher concentrations: ineffective

## ACTH fragment (18-39): ACTH fragment (18-39) (RPVKVYPNGAEDESAEAFPLEF; Corticotropin; UniProt P01189 155-176, looked up, fragment) [reference compound]
[3]
  relative potency in reducing C. albicans viability: did not reduce C. albicans viability
  reduction of C. albicans CFU at higher concentrations: ineffective

## Ac-[D-Lys^11, D-Val^13] α-MSH (11-13)-NH2 [Ac-[D-Lys^11, D-Val^13]α-MSH(11-13)-NH2]
[4]; 10 μg IP, 3 h
  % Inhibition of swelling: 22%
[4]; 10 μg IP, 6 h
  % Inhibition of swelling: 22%
[4]; 20 μg IP, 3 h
  % Inhibition of swelling: 55%
[4]; 20 μg IP, 6 h
  % Inhibition of swelling: 46%
[4]; 40 μg IP, 3 h
  % Inhibition of swelling: 42%
[4]; 40 μg IP, 6 h
  % Inhibition of swelling: 41%
[4]; 80 μg IP, 3 h
  % Inhibition of swelling: 40%
[4]; 80 μg IP, 6 h
  % Inhibition of swelling: 44%
[4]
  overall effect on ear inflammation (ANOVA): significant overall reduction in inflammation

## Ac-[D-Pro^12]α-MSH (11-13)-NH2
[4]; 10 μg IP, 3 h
  % Inhibition of swelling: 4%
[4]; 10 μg IP, 6 h
  % Inhibition of swelling: 8%
[4]; 20 μg IP, 3 h
  % Inhibition of swelling: 11%
[4]; 20 μg IP, 6 h
  % Inhibition of swelling: 5%
[4]; 40 μg IP, 3 h
  % Inhibition of swelling: 10%
[4]; 40 μg IP, 6 h
  % Inhibition of swelling: 8%
[4]; 80 μg IP, 3 h
  % Inhibition of swelling: 8%
[4]; 80 μg IP, 6 h
  % Inhibition of swelling: 6%
[4]
  overall effect on ear inflammation (ANOVA): no significant effect on inflammation

## Ac[D-Val^13] α-MSH (11-13)-NH2
[4]; 10 μg IP, 3 h
  % Inhibition of swelling: 24%
[4]; 10 μg IP, 6 h
  % Inhibition of swelling: 23%
[4]; 20 μg IP, 3 h
  % Inhibition of swelling: 48%
[4]; 20 μg IP, 6 h
  % Inhibition of swelling: 54%
[4]; 40 μg IP, 3 h
  % Inhibition of swelling: 39%
[4]; 40 μg IP, 6 h
  % Inhibition of swelling: 45%
[4]; 80 μg IP, 3 h
  % Inhibition of swelling: 41%
[4]; 80 μg IP, 6 h
  % Inhibition of swelling: 29%
[4]
  overall effect on ear inflammation (ANOVA): marked inhibitory influence

## HFRWGKPV (Designed polypeptide with anti-inflammatory, anti-bacterial, anti-fungal and antipyretic properties.) [α-MSH (6-13)]
[3]
  relative potency in reducing C. albicans viability: the most effective
[5]
  reduction in the number of filamentous cells (inhibition of germination): approximately 50%

## MEHFRWG [α-MSH (4-10)]
[3]; 10^−4M peptide as printed
  inhibition of CFU: approximately 50%

Reference: patent US6969590B2, “Use of a polypeptide for treatment of pruritus in animals” (Zengen, Inc., priority 2001, dated 2005)
